Usually IC50 stands for the concentration that gives 50% inhibition. Higher therefore signals weaker potency.

Our source for the IC50 values is patent US12673946B2, “Pyrimidin-4(3H)-one derivatives as TRPV4 antagonists” (RaQualia Pharma Inc., priority 2020, dated 2026).

The assay has as its target T1, human TRPV4 (Homo sapiens, UniProt Q9HBA0).
T1 construct: host or cells: tetracycline-inducible Flp-In T-REx 293 cells
The assay is described as follows: Hypotonicity-induced Ca2+ influx (Fluo-4, FDSS). The format is cell-based. On the procedure: Hypotonicity-Induced Ca^2+ Influx
TRPV4 channel activation/opening results in an influx of Ca^2+ (Liedtke, W. et al., 2000 (NPL 1)). The resulting changes in intracellular calcium are monitored using a Ca^2+ sensitive fluorescent dye Fluo-4 (Invitrogen). Dye loaded cells are treated with the test compounds for 5 minutes prior to the addition of a hypotonic solution and the inhibition of the hypotonicity-induced activation is recorded.
Forty microL of tetracycline-inducible Flp-In T-REx 293 cells (Invitrogen) stably expressing human TRPV4 are seeded onto the poly-D-lysine coated 384-well plate (Corning) at a density of 10,000 cells per well. The following day, TRPV4 expression is induced by adding 0.5 microg/mL tetracycline for 20-24 hours. On the day of the experiment, the media is removed and replaced with 40 microL of dye loading buffer [1 microM Fluo-4 AM (Invitrogen), 0.01% Pluronic F-127, and 20 mM HEPES in Hanks' balanced salt solutions (HBSS; Invitrogen)] and then the cells are incubated for 60 minutes at 25° C. Dye is then removed and replaced with 20 microL of assay buffer (20 mM HEPES in HBSS). Five minutes prior to the fluorescence measurement, 10 microL of test compound is added to the cells. Using the FDSS instrument (Hamamatsu Photonics), 30 microL of hypotonic solution (90 mM D-mannitol and 1.26 mM CaCl2 in ultrapure water) is added 30 seconds after the start of measurement. The calcium flux signal is recorded for a total of 4.5 minutes.

Where [1] appears, read: Flp-In T-REx 293 cells expressing human TRPV4, examples listed under heading 'Human IC50<50 nM'.
[2] abbreviates: Flp-In T-REx 293 cells stably expressing human TRPV4, compounds listed by potency bin (<10 nM Tables 96-1/96-2, <3 nM Table 97).

T1 sequence (Q9HBA0 whole entry): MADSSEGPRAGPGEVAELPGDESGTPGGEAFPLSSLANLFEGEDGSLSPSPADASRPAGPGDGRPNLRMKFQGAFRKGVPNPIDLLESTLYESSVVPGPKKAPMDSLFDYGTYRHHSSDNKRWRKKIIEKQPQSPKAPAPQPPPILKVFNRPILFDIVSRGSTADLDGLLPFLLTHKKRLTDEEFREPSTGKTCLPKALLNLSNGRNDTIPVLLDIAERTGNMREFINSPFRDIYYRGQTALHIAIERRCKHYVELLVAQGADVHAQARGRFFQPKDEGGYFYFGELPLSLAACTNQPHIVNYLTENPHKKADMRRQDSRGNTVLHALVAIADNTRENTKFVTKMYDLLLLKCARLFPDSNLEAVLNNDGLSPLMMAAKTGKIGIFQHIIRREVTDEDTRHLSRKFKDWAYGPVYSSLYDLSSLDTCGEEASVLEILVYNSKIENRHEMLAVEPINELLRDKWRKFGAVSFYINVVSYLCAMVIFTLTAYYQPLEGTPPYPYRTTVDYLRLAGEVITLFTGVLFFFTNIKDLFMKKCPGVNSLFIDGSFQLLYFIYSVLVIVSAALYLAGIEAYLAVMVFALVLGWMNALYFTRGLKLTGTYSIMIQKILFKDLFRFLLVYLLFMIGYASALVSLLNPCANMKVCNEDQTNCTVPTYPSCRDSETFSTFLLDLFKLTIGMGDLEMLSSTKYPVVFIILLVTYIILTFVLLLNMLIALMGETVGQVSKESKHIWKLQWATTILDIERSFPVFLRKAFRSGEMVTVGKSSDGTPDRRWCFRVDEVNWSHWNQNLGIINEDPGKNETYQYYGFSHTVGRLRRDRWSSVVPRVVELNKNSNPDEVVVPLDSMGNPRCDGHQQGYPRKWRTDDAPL

`O=C([C@H](O)c1cccc(Cl)c1)N1CCc2nc(C3(c4cc(C5CCCCC5)cs4)CC3)[nH]c(=O)c2C1` [15-7]: the IC50 is, setting by setting: under setting [1], below 50 nM; under setting [2], below 10 nM.
The matching figures for `CC(C)c1csc(C2(c3nc4c(c(=O)[nH]3)CN(C(=O)[C@H](O)c3cccc(Cl)c3)CC4)CC2)c1` [15-8]: below 50 nM and below 10 nM.
For `O=C([C@H](O)c1cccc(C(F)(F)F)c1)N1CCc2nc(C3(c4cc(Br)cs4)CC3)[nH]c(=O)c2C1` [15-9], the IC50 is, setting by setting: under setting [1], below 50 nM; under setting [2], below 10 nM.
For the compound `O=C(C(O)c1cccc(-c2ccc(Cl)cc2)c1)N1CCc2nc(C3(c4cccs4)CC3)[nH]c(=O)c2C1` (stereo not shown) [15-10], under setting [1], the IC50 is below 50 nM.
As for `O=C(C(O)c1cccc(-c2cccc(F)c2)c1)N1CCc2nc(C3(c4cccs4)CC3)[nH]c(=O)c2C1` (stereo not shown) [15-11], the IC50 under setting [1] was below 50 nM.
Same read-out and setting: with `O=C(C(O)c1cccc(SC(F)(F)F)c1)N1CCc2nc(C3(c4cccs4)CC3)[nH]c(=O)c2C1` (stereo not shown) [15-12] the figure was below 50 nM; with `O=C(C(O)c1cccc(S(F)(F)(F)(F)F)c1)N1CCc2nc(C3(c4cccs4)CC3)[nH]c(=O)c2C1` (stereo not shown) [15-13], below 50 nM.
In the case of `O=C([C@H](O)c1cccc(Cl)c1)N1CCc2nc(C3(c4cc(Cl)cs4)CC3)[nH]c(=O)c2C1` [15-14], under setting [1], the IC50 was below 50 nM.
Still for that read-out and setting: then `O=C([C@H](O)c1cccc(Cl)c1)N1CCc2nc(C3(c4cc(C5CCOCC5)cs4)CC3)[nH]c(=O)c2C1` [15-15], with below 50 nM.
`O=C(C(O)c1cccc(C(F)(F)F)c1F)N1CCc2nc(C3(c4cccs4)CC3)[nH]c(=O)c2C1` (stereo not shown) [15-16]: the IC50 under setting [1] is below 50 nM.
Turning to `CC(C)(C)c1cccc(C(O)C(=O)N2CCc3nc(C4(c5cccs5)CC4)[nH]c(=O)c3C2)c1` (stereo not shown) [15-17], the IC50 under setting [1] was below 50 nM.
Same read-out and setting: with `O=C([C@H](O)c1cccc(C(F)(F)F)c1)N1CCc2nc(C3(c4cccs4)CC3)[nH]c(=O)c2C1` [15-18] the figure was below 50 nM.
For `CC(C)c1csc(C2(c3nc4c(c(=O)[nH]3)CN(C(=O)C(O)c3cccc(C(C)(C)C)c3)CC4)CC2)c1` (stereo not shown) [15-24], the IC50 under setting [1] was below 50 nM and the concentration for half-maximal inhibition (IC50) under setting [2] is below 10 nM.
The matching figures for `CC(C)c1csc(C2(c3nc4c(c(=O)[nH]3)CN(C(=O)C(O)c3cccc(C(F)(F)F)c3F)CC4)CC2)c1` (stereo not shown) [15-26]: below 50 nM and below 10 nM.
Take `CC(C)c1csc(C2(c3nc4c(c(=O)[nH]3)CN(C(=O)C(O)c3cccc(Cl)c3F)CC4)CC2)c1` (stereo not shown) [15-27]: the concentration for half-maximal inhibition (IC50) reads like this: under setting [1], below 50 nM; under setting [2], below 3 nM.
The like results for `O=C(C(O)c1cccc(-c2cccc(OC(F)(F)F)c2)c1)N1CCc2nc(C3(c4cccs4)CC3)[nH]c(=O)c2C1` (stereo not shown) [15-28] were, in that order, below 50 nM and below 3 nM.
On to `O=C([C@H](O)c1cccc(Cl)c1)N1CCc2nc(C3(c4cncc(-c5ccccc5)c4)CC3)[nH]c(=O)c2C1` [16-1], for which the IC50 was below 50 nM under setting [1] and below 3 nM under setting [2].
Compound `O=C(C(O)c1cccc(C(F)(F)F)c1F)N1CCc2nc(C3(c4cncc(-c5ccccc5)c4)CC3)[nH]c(=O)c2C1` (stereo not shown) [16-2] had an IC50 under setting [1] below 50 nM and an IC50 under setting [2] below 10 nM.
`C=C(C)c1cccc(C2(c3nc4c(c(=O)[nH]3)CN(C(=O)[C@H](O)c3cccc(C(F)(F)F)c3)CCC4)CC2)c1` [17-1] showed an IC50 under setting [1] below 50 nM and an IC50 under setting [2] below 3 nM.
The matching figures for `O=C([C@H](O)c1cccc(C(F)(F)F)c1)N1CCCc2nc(C3(c4cccc(C(F)(F)F)c4)CC3)[nH]c(=O)c2C1` [17-3]: below 50 nM and below 3 nM.
The like results for `O=C(C(O)c1cccc(C(F)(F)F)c1F)N1CCCc2nc(C3(c4cccc(Cl)c4)CC3)[nH]c(=O)c2C1` (stereo not shown) [17-4] were, in that order, below 50 nM and below 3 nM.
On to `O=C(C(O)c1cccc(-c2cccc(F)c2)c1)N1CCCc2nc(C3(c4cccc(Cl)c4)CC3)[nH]c(=O)c2C1` (stereo not shown) [17-5], for which the IC50 under setting [1] was below 50 nM and the IC50 under setting [2] was below 3 nM.
The like results for `O=C([C@H](O)c1cccc(C(F)(F)F)c1)N1CCCc2nc(C3(c4cccc(OC(F)(F)F)c4)CC3)[nH]c(=O)c2C1` [17-6] were, in that order, below 50 nM and below 3 nM.
The matching figures for `O=C(C(O)c1cccc(Cl)c1F)N1CCCc2nc(C3(c4cccc(Cl)c4)CC3)[nH]c(=O)c2C1` (stereo not shown) [17-7]: below 50 nM and below 3 nM.
With `CC(C)c1cccc(C2(c3nc4c(c(=O)[nH]3)CN(C(=O)C(O)c3cccc(C(C)(C)C)c3)CCC4)CC2)c1` (stereo not shown) [17-8], the IC50 was below 50 nM under setting [1] and below 3 nM under setting [2].
As for `CC(C)c1cccc(C2(c3nc4c(c(=O)[nH]3)CN(C(=O)C(O)c3cccc(C(F)(F)F)c3F)CCC4)CC2)c1` (stereo not shown) [17-9], the IC50 was below 50 nM under setting [1] and below 10 nM under setting [2].
`O=C(C(O)c1cccc(C(F)(F)F)c1F)N1CCCc2nc(C3(c4cccc(F)c4)CC3)[nH]c(=O)c2C1` (stereo not shown) [17-10]: the IC50 is, setting by setting: under setting [1], below 50 nM; under setting [2], below 10 nM.
Regarding `O=C(Cc1cccc(C(F)(F)F)c1F)N1CCCc2nc(C3(c4ccccc4)CC3)[nH]c(=O)c2C1` [17-11], the IC50 is, setting by setting: under setting [1], below 50 nM; under setting [2], below 10 nM.
Take `O=C([C@H](O)c1cccc(C(F)(F)F)c1)N1CCCc2nc(C3(c4cccc(Cl)c4)CC3)[nH]c(=O)c2C1` [17-12]: the IC50 is below 50 nM under setting [1] and below 10 nM under setting [2].
Turning to `O=C(C(O)c1cccc(OCc2ccccc2)c1)N1CCCc2nc(C3(c4cccc(Cl)c4)CC3)[nH]c(=O)c2C1` (stereo not shown) [17-13], the IC50 was below 50 nM under setting [1] and below 10 nM under setting [2].
For `O=C(C(O)c1cccc(-c2cccc(C(F)(F)F)c2)c1)N1CCCc2nc(C3(c4cccc(F)c4)CC3)[nH]c(=O)c2C1` (stereo not shown) [17-14], the IC50 reads like this: under setting [1], below 50 nM; under setting [2], below 10 nM.
For `O=C(C(O)c1cccc(-c2cccc(OC(F)(F)F)c2)c1)N1CCCc2nc(C3(c4cccc(F)c4)CC3)[nH]c(=O)c2C1` (stereo not shown) [17-15], the IC50 was below 50 nM under setting [1] and below 10 nM under setting [2].
Consider `O=C(C(O)c1cccc(-c2cccc(C(F)(F)F)c2)c1)N1CCCc2nc(C3(c4cccc(Cl)c4)CC3)[nH]c(=O)c2C1` (stereo not shown) [17-16], for which the IC50 is below 50 nM under setting [1] and below 10 nM under setting [2].
As for `O=C(C(O)c1cccc(-c2ccc(Cl)cc2)c1)N1CCCc2nc(C3(c4cccc(Cl)c4)CC3)[nH]c(=O)c2C1` (stereo not shown) [17-17], the IC50 reads like this: under setting [1], below 50 nM; under setting [2], below 10 nM.
The like results for `CC(C)(C)c1cccc(C(O)C(=O)N2CCCc3nc(C4(c5cccc(Cl)c5)CC4)[nH]c(=O)c3C2)c1` (stereo not shown) [17-18] were, in that order, below 50 nM and below 10 nM.
The matching figures for `O=C(C(O)c1cccc(-c2cnc3ccccc3c2)c1)N1CCCc2nc(C3(c4cccc(Cl)c4)CC3)[nH]c(=O)c2C1` (stereo not shown) [17-19]: below 50 nM and below 10 nM.
`O=C(C(O)c1cccc(C(F)(F)F)c1F)N1CCCc2nc(C3(c4ccccc4)CC3)[nH]c(=O)c2C1` (stereo not shown) [17-20]: the half-inhibitory concentration (IC50) runs as follows: under setting [1], below 50 nM; under setting [2], below 10 nM.
For `CC(C)(C)c1cccc(C(O)C(=O)N2CCCc3nc(C4(c5cccc(F)c5)CC4)[nH]c(=O)c3C2)c1` (stereo not shown) [17-21], the concentration for half-maximal inhibition (IC50) runs as follows: under setting [1], below 50 nM; under setting [2], below 10 nM.
The like results for `O=C(C(O)c1ccccc1Oc1ccccc1)N1CCCc2nc(C3(c4cccc(Cl)c4)CC3)[nH]c(=O)c2C1` (stereo not shown) [17-22] were, in that order, below 50 nM and below 10 nM.
The matching figures for `O=C(C(O)c1cccc(-c2cccc(OC(F)(F)F)c2)c1)N1CCCc2nc(C3(c4cccc(Cl)c4)CC3)[nH]c(=O)c2C1` (stereo not shown) [17-23]: below 50 nM and below 10 nM.
The matching figures for `O=C(C(O)c1cccc(C2CC2)c1)N1CCCc2nc(C3(c4cccc(Cl)c4)CC3)[nH]c(=O)c2C1` (stereo not shown) [17-24]: below 50 nM and below 10 nM.
Take `O=C([C@H](O)c1cccc(C(F)(F)F)c1)N1CCCc2nc(C3(c4cccc(C5CCCCC5)c4)CC3)[nH]c(=O)c2C1` [17-25]: the IC50 runs as follows: under setting [1], below 50 nM; under setting [2], below 10 nM.
The matching figures for `O=C(Cc1cccc(SC(F)(F)F)c1)N1CCCc2nc(C3(c4ccccc4)CC3)[nH]c(=O)c2C1` [17-26]: below 50 nM and below 10 nM.
On to `O=C(C(O)c1cccc(S(F)(F)(F)(F)F)c1)N1CCCc2nc(C3(c4cccc(Cl)c4)CC3)[nH]c(=O)c2C1` (stereo not shown) [17-27], for which the IC50 was below 50 nM under setting [1] and below 10 nM under setting [2].
The matching figures for `O=C(C(O)c1cccc(SC(F)(F)F)c1)N1CCCc2nc(C3(c4cccc(Cl)c4)CC3)[nH]c(=O)c2C1` (stereo not shown) [17-28]: below 50 nM and below 10 nM.
As for `O=C([C@H](O)c1cccc(Cl)c1)N1CCCc2nc(C3(c4cccc(Cl)c4)CC3)[nH]c(=O)c2C1` [17-29], the IC50 was below 50 nM under setting [1] and below 10 nM under setting [2].
For the compound `O=C(C(O)c1cccc(SC(F)(F)F)c1)N1CCCc2nc(C3(c4cccc(F)c4)CC3)[nH]c(=O)c2C1` (stereo not shown) [17-30], the IC50 by setting is: under setting [1], below 50 nM; under setting [2], below 10 nM.
